Assay results as given in US20140088044A1, “PRODUCT COMPRISING A NICOTINE-CONTAINING MATERIAL AND AN ANTI-CANCER AGENT” (priority 2012, published 2014).

Legend:
[1] = Drug levels in lungs and plasma after inhalation vs. oral gavage; format: in vivo, mice
[2] = system: A549 xenografts; test: A549 xenografts in nude mice, PS V and curcumin alone and combined; format: in vivo, female nude mice; settings: for inhibition of tumor growth (in words): duration of the study, to day 36; for average tumor volume: end of the study (day 36), PS V 200 mg/kg/d, curcumin 500 mg/kg/d, control 521±76 mm^3; for reduction in tumor weight: PS V p=0.06, PS V plus curcumin p<0.01
Description: Polymeric nanoparticles of poly(c-caprolactone) (11000)-polyethylene glycol (5000) with entrapped curcumin were prepared according to the nanopercipitation-solvent displacement method. […] Then, the mice were inoculated subcutaneously on both flanks with […] cells (2×10^6 each). The treatment was resumed one day after tumor implantation and continued daily until the end of the study.

[3] = system: human cancer cells; test: Cytotoxicity to human cancer cells compared with metabolites; format: cell-based
[4] = Pharmacokinetic parameters in lung and plasma after inhalational administration (HPLC)
Description: After 8 min of inhalation treatment, BALB/c nude mice were euthanized at various time points and drug levels were analyzed by HPLC in plasma and lung tissues.

[5] = system: pre-clinical models of lung cancer; settings: cited from earlier work
[6] = mouse, in vivo, inhaled or intranasal
[7] = plasma, after 8 min of inhalation treatment

CCOP(=O)(OCC)OCCCCOC(=O)CC1=C(C)/C(=C/c2ccc([S+](C)[O-])cc2)c2ccc(F)cc21 (centres unmarked) [PS V, phospho-sulindac]
PS levels in plasma ([1]; after inhalation and oral administration): undetectable | total drug levels (PS V plus its metabolites) in lungs, inhalation compared to oral ([1]; inhalation 6.5 mg/kg vs oral 150 mg/kg): significantly higher | inhibition of tumor growth (in words) [2]: small inhibition of tumor growth | average tumor volume [2]: 419±36 mm^3 | reduction in tumor volume ([2]; end of the study, vs control): 19.6% | reduction in tumor weight ([2]; vs control): 27% | cytotoxicity relative to sulindac, sulindac sulfide XI and sulindac sulfone XII [3]: more cytotoxic

CSc1ccc(/C=C2/C(C)=C(CC(=O)O)c3cc(F)ccc32)cc1 [Sulindac sulfide XI, sulindac sulfide]
AUC [4, 6]: 18.9

CC1=C(CC(=O)O)c2cc(F)ccc2/C1=C\c1ccc(S(C)(=O)=O)cc1 [Sulindac sulfone XII, sulindac sulfone]
AUC [4, 6]: 57.5 | Cmax [4, 6]: 4.6 nmol/g

CC1=C(CC(=O)O)c2cc(F)ccc2/C1=C\c1ccc([S+](C)[O-])cc1 (centres unmarked) [Sulindac, sulindac]
Tmax ([4]; lung, after 8 min of inhalation treatment): 0 h | AUC [4, 7]: 49.5 | Tmax [4, 7]: 0 h

COc1cc(/C=C/C(=O)CC(=O)/C=C/c2ccc(O)c(OC)c2)ccc1O [curcumin]
inhibition of tumor growth (in words) [2]: ineffective | average tumor volume [2]: 599±98 mm^3 | reduction in tumor weight ([2]; vs control): not | efficacy as a single agent [5]: < 30%
